PubChem BioAssay AID266 (DTP/NCI, 2004)
Values joined by “and” are separate entries in the source; they are usually repeats but may differ in a detail not shown here. Equal values may be shown once. Inconclusive results are not listed.

System: Nude mice, LX-1 lung xenograft intrarenal, tumor weight T/C
Test: NCI In Vivo Anticancer Drug Screen. Data for tumor model Human Lung LX-1 Xenograft (intrarenal inoculation) in NU/NU BALB/C (nude) mice
Conditions: endpoint: mean tumor weight change, higher = larger tumour
Protocol: The antitumor activity of compounds was measured in mice bearing transplantable tumors. Survival or tumor size were measured and the results are expressed as the measurement made in the treated group (T) divided by the measurement made in the vehicle treated control group (C). The tumor model used in this assay is Human Lung LX-1 Xenograft (intrarenal inoculation) in NU/NU BALB/C (nude) mice

[1] = dose: 50.0 mg/kg/injection, schedule: Q01DX010 (sc), vehicle: saline
[2] = dose: 100.0 mg/kg/injection, schedule: Q01DX010 (sc), vehicle: saline
[3] = dose: 166.66 mg/kg/injection, schedule: Q04DX003 (sc), vehicle: saline
[4] = dose: 200.0 mg/kg/injection, schedule: Q01DX010 (sc), vehicle: saline
[5] = dose: 666.65 mg/kg/injection, schedule: Q04DX003 (sc), vehicle: saline
[6] = dose: 600.0 mg/kg/injection, schedule: Q04DX003 (sc), vehicle: saline with Tween-80
[7] = dose: 1200.0 mg/kg/injection, schedule: Q04DX003 (sc), vehicle: saline with Tween-80
[8] = dose: 2400.0 mg/kg/injection, schedule: Q04DX003 (sc), vehicle: saline with Tween-80

NC1=NCN(C2OC(CO)C(O)C2O)C(=O)N1 (stereo unspecified)
T/C (dose: 25.0 mg/kg/injection, schedule: Q01DX010 (sc), vehicle: saline): 86 % of control
T/C [1]: 180 % of control
T/C [2]: 112 % of control
T/C [3]: 158 % of control
T/C [4]: 84 % of control
T/C (dose: 333.32 mg/kg/injection, schedule: Q04DX003 (sc), vehicle: saline): 55 % of control
T/C [5]: 88 % of control

CCS/C(SC)=C(/c1ccccc1)[P+](c1ccccc1)(c1ccccc1)c1ccccc1
T/C (dose: 9.38 mg/kg/injection, schedule: Q04DX003 (sc), vehicle: Klucel (hydroxypropylcellulose) (HPC)): 79 % of control
T/C (dose: 18.75 mg/kg/injection, schedule: Q04DX003 (sc), vehicle: Klucel (hydroxypropylcellulose) (HPC)): 76 % of control
T/C (dose: 37.5 mg/kg/injection, schedule: Q04DX003 (sc), vehicle: Klucel (hydroxypropylcellulose) (HPC)): 110 % of control

NNC(=S)N/N=C/c1ccccn1
T/C (dose: 15.0 mg/kg/injection, schedule: Q04DX003 (sc), vehicle: saline with Tween-80): 78 % of control
T/C (dose: 30.0 mg/kg/injection, schedule: Q04DX003 (sc), vehicle: saline with Tween-80): 95 % of control
T/C (dose: 60.0 mg/kg/injection, schedule: Q04DX003 (sc), vehicle: saline with Tween-80): 94 % of control

N/C=N/O
T/C [4]: 180 % of control
T/C (dose: 400.0 mg/kg/injection, schedule: Q01DX010 (sc), vehicle: saline): 161 % of control

N=c1c(C(=O)OCc2ccccc2)ncc(CCl)n1O
T/C (dose: 300.0 mg/kg/injection, schedule: Q04DX003 (sc), vehicle: saline with Tween-80): 87 % of control
T/C [6]: 83 % of control
T/C [7]: 91 % of control
T/C [8]: 81 % of control

COC1N(C2CC(O)C(CO)O2)C(=O)NC(=O)C1(F)Br (stereo unspecified)
T/C (dose: 12.5 mg/kg/injection, schedule: Q01DX010 (sc), vehicle: saline): 54 % of control
T/C [1]: 12 % of control and 24 % of control
T/C [2]: 12 % of control and 13 % of control

Cc1c(-c2ccc(-c3ccccc3F)cc2)nc2ccc(F)cc2c1C(=O)O
T/C (dose: 6.9 mg/kg/injection, schedule: Q01DX009 (ip), vehicle: water): 7 % of control and 13 % of control and 31 % of control
T/C (dose: 19.2 mg/kg/injection, schedule: Q01DX009 (ip), vehicle: water): 5 % of control and 14 % of control and 21 % of control
T/C (dose: 32.0 mg/kg/injection, schedule: Q01DX009 (ip), vehicle: water): 15 % of control and 17 % of control

CC(Oc1ccccc1-c1ccccc1)C(=O)N(C)C (stereo unspecified)
T/C [6]: 100 % of control
T/C [7]: 116 % of control
T/C [8]: 107 % of control

[Cl][Hg][Cl]
T/C (dose: 2.5 mg/kg/injection, schedule: Q04DX003 (ip), vehicle: saline): 92 % of control
T/C (dose: 5.0 mg/kg/injection, schedule: Q04DX003 (ip), vehicle: saline): 82 % of control
T/C (dose: 10.0 mg/kg/injection, schedule: Q04DX003 (ip), vehicle: saline): 58 % of control

CCCCCn1c(C)cc(/C=C\c2ccc3cc(C)ccc3[n+]2C)c1C
T/C (dose: 0.25 mg/kg/injection, schedule: Q01DX010 (sc), vehicle: Klucel (hydroxypropylcellulose) (HPC)): 214 % of control
T/C (dose: 1.0 mg/kg/injection, schedule: Q01DX010 (sc), vehicle: Klucel (hydroxypropylcellulose) (HPC)): 212 % of control
T/C (dose: 2.0 mg/kg/injection, schedule: Q01DX010 (sc), vehicle: Klucel (hydroxypropylcellulose) (HPC)): 119 % of control

COc1ccc2ccccc2c1C1NC(=O)c2ccccc2N1 (stereo unspecified)
T/C (dose: 300.0 mg/kg/injection, schedule: Q04DX003 (sc), vehicle: Klucel (hydroxypropylcellulose) (HPC)): 113 % of control
T/C (dose: 600.0 mg/kg/injection, schedule: Q04DX003 (sc), vehicle: Klucel (hydroxypropylcellulose) (HPC)): 78 % of control
T/C (dose: 1200.0 mg/kg/injection, schedule: Q04DX003 (sc), vehicle: Klucel (hydroxypropylcellulose) (HPC)): 83 % of control
T/C (dose: 2400.0 mg/kg/injection, schedule: Q04DX003 (sc), vehicle: Klucel (hydroxypropylcellulose) (HPC)): 83 % of control

c1cc2n(n1)CCN2
T/C (dose: 50.0 mg/kg/injection, schedule: Q01DX010 (ip), vehicle: saline): 107 % of control
T/C [1]: 26 % of control
T/C (dose: 100.0 mg/kg/injection, schedule: Q01DX010 (ip), vehicle: saline): 70 % of control
T/C [2]: 12 % of control
T/C [3]: 170 % of control
T/C [4]: -33 % of control
T/C (dose: 333.33 mg/kg/injection, schedule: Q04DX003 (sc), vehicle: saline): 150 % of control
T/C [5]: 59 % of control
